Assay results: patent US9511072B2, “Methods of modulating cell proliferation and cyst formation in polycystic kidney and liver diseases” (The Medical College of Wisconsin, Inc., priority 2006, dated 2016)

Tests used:
20-HETE = settings: cited from earlier work
REC11 cells = test: BrdU proliferation of EGF-stimulated REC11 cystic renal epithelial cells; assay type: cell-based, mouse; settings: 10 μM, 36 hrs, after EGF 25 ng/ml for 6 hours
Description: REC11 cystic cell line is a conditionally immortalized epithelial collecting tubule (CT) cell line derived from the cystic kidneys of the BPK mouse model of human ARPKD crossed to the ImmortoMouse. The BPK mouse as a human ARPKD model has been described in Nauta J. et al., Pediatr Nephrol 1993, 7:163-172 and Nauta J. et al., Pediatr Res 1995, 37:755-763. The procedures for immortalization, cell isolation, cell culture and the complete phenotypic characterization of this cell line have been described in detail in Sweeney W. E. et al., Am J Physiol C Physiol 2001, 281:C1695-705. All analysis and experiments were performed on REC11 cells grown for a minimum 6 days under non-permissive conditions to eliminate residual Large T.
Proliferation of REC11 cells was stimulated by exposure of the cells for 6 hours with EGF (25 ng/ml). Next, the cells were treated with vehicle, HET0016 (10 μM, a 20-HETE synthesis inhibitor), HET0016 (20 μM), DDMS (10 μM, a 20-HETE synthesis inhibitor), or WIT-002 (10 μM, a 20-HETE antagonist) for 36 hrs, pulsed with BrdU, and then stained for BrdU labeled cells to determine the degree of cell proliferation. […] Cells treated with a higher dose of HET0016 (20 μM) (column C) reduced proliferation by 75% (p<0.020). Cells treated with another chemically dissimilar inhibitor of the synthesis of 20-HETE, DDMS (10 μM) (column D), reduced proliferation by 47% (p<0.05). Cells treated with WIT-002 (10 μM) (column E) reduced proliferation by 25%.

cystic BPK cells = test: BrdU incorporation in cystic BPK cells; assay type: cell-based, mouse; settings: 10 μM, 36 hours; vehicle 118
Experimental: To determine the level of proliferation in the cystic BPK cells, chemically dissimilar inhibitors of cytochrome P450 4A (CYP4A) and 4F (CYP4F) inhibitors, specifically HET-0016 (10 and 20 μM) and DDMS (10 μM), were incubated for 36 hours with the BPK cells. Three hours prior to the harvesting of the cells, 5-bromo-2′-deoxyuridine (BrdU) at a concentration of 30 μM was added to determine the level of cell cycle inhibition. The cells were subsequently methanol fixed and BrdU-positive cells were identified by immunohistology with biotinylated monoclonal anti-BrdU antibody (Zymed, South San Francisco, Calif.). Data were expressed as the percentage of BrdU-labeled cells per 500 counted cells.

SMILES	20-HETE levels in vivo (20-HETE)	reduction of proliferation (BrdU labeled cells) vs vehicle (REC11 cells) [%]	BrdU-positive cells per 500 total cells counted (cystic BPK cells)
C#CCCCCCCCCCCCCCCCC(=O)O [Compound 17-ODYA, 17-Octadecynoic acid]	reduce 20-HETE levels in vivo		
CS(=O)(=O)NC(=O)CCCCCCCCCC=C(Br)Br [DDMS, dibromododecenyl methylsulfonimide]		47	63 BrdU(+) cells
O=C(O)CCCC/C=C\CCCCCCC/C=C\CCCCO [WIT-002, 20-hydroxyeicosa-6(Z),15(Z)-dienoic acid]		25	
Nn1nnc2ccccc21 [Compound 1-ABT, 1-aminobenzotriazole]	reduce 20-HETE levels in vivo		
